Common to all, as to test: NCI tumour cell line growth inhibition, 48 h
In assay [1] the test system is DLD-1.
Assay [2] deals with KM-20L2.
Assay [3] relates to RXF 631.
Assay [4] relates to DMS-114.
For assay [5], the system named is M19-MEL.
Assay [6] deals with LXFL 529.
Assay [7] has as its system DMS-273.
The test system of assay [8] is SNB-78.
The subject of assay [9] is XF498.

Structures are written as SMILES.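 In this assay, cells in 96-well plates receive the compound at five concentrations for 48 hours. Endpoints are linearly interpolated between the surrounding concentrations. GI50 is the concentration that inhibits growth by half.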 The source made the active and inactive calls. No stated cut-off is given here; in the data, active = GI50 up to about 1.1 µM and inactive = higher. A value given as a limit tells only on which side of the number the result lay.

Consider `O=C1c2ccccc2C(=O)c2c1ccc1conc21`, for which the GI50 in [1] is 2.55 µM (inactive); in assay [2] it was 15.4 µM (inactive); in assay [3] it was 2.85 µM (inactive); in [4] it was 1.83 µM (inactive); in [5], 1.32 µM (inactive); in assay [6] it was 1.8 µM (inactive). For the same compound, the GI50 was 3.44 µM (inactive) in assay [7] and 2.84 µM (inactive) in [8].
For `O=C(OCCCl)C1OC(n2cc(F)c(=O)[nH]c2=O)CC1O` (centres undefined), the GI50 in assay [1], in assay [2], in [4], in assay [5], in assay [6] and in [9] was > 100 µM (inactive) in each case. Moreover, the GI50 in assay [8] was > 100 µM (inactive).
With `COc1cc(Cl)cc(O)c(=O)c1OC`, the GI50 in [1] was 37.3 µM (inactive); in [2] it was 37.9 µM (inactive); in assay [4], 24 µM (inactive); in assay [5], 45.8 µM (inactive); in assay [6], 53.3 µM (inactive); in assay [7], 32.2 µM (inactive). For the same compound, the GI50 was > 59.8 µM (inactive) in assay [9] and 16.9 µM (inactive) in assay [8].
`COC(=O)C1CC(c2ccc(Cl)cc2)=NO1` (centres undefined): the GI50 in assay [1], in [2], in [4], in [5], in assay [6] and in assay [7] was > 100 µM (inactive) each time. Also, the GI50 in assay [8] is > 100 µM (inactive).
Consider `Cc1ccc(NCC(=O)N2CC(=O)Nc3ccccc32)cc1`, for which the GI50 in [1], in assay [2], in assay [4], in assay [5], in [6] and in assay [7] was > 100 µM (inactive) throughout. In addition, the GI50 in assay [9] was 75.7 µM (inactive); in assay [8], > 100 µM (inactive).
In the case of `Cc1cc(C)nc(NS(=O)(=O)c2ccc(Nc3c4ccc(Cl)cc4nc4c(C(=O)NCCN(C)C)cccc34)cc2)n1`, the GI50 in [1], in assay [2], in assay [3], in [4], in [5] and in assay [6] was > 100 µM (inactive) in each case. In addition, the GI50 in assay [7], in assay [9] and in assay [8] was > 100 µM (inactive) throughout.
For the compound `CN(C)CCNC(=O)c1ccc(C(=O)NCCN(C)C)c2nc3ccccc3cc12`, the GI50 in assay [1] was 0.516 µM (active); in assay [2], 0.568 µM (active); in [3] it was 1 µM (active); in assay [4], 0.553 µM (active); in assay [5] it was 0.8 µM (active); in assay [6] it was 0.729 µM (active). For the same compound, the GI50 in [7] was 0.538 µM (active); in [8] it was 1.05 µM (active).
For `NCCCCCS(=O)(=O)O`, the GI50 in assay [1], in [2], in [3], in [4], in [5] and in [6] was > 100 µM (inactive) throughout. The GI50 in assay [7] and in [8] was > 100 µM (inactive) each time.
As to `O=C1c2ccccc2C2(O)Nc3cc(O)ccc3C12O` (centres undefined), the GI50 in assay [1], in [2], in [3], in assay [4], in assay [6] and in assay [7] was > 100 µM (inactive) throughout. For the same compound, the GI50 in assay [8] is > 100 µM (inactive).
As to `Cc1ccc(C2CC(c3ccco3)=NN2c2ccccc2)o1` (centres undefined), the GI50 in assay [2], in [4], in assay [5], in [6], in assay [7] and in assay [9] was > 100 µM (inactive) in each case. Besides, in [8], the GI50 is > 100 µM (inactive).
`CCCCN(CCCC)C(=O)C(=O)C(C(=O)C(=O)OC)c1nc2ccccc2o1` (centres undefined): the GI50 is 53.8 µM (inactive) in [1]; 79.3 µM (inactive) in assay [3]; 54 µM (inactive) in [4]; > 100 µM (inactive) in assay [5]; > 100 µM (inactive) in assay [6]; > 100 µM (inactive) in assay [7]. Besides, the GI50 in assay [9] was 64.3 µM (inactive); in assay [8], > 100 µM (inactive).
Take `O=C1C2c3[nH]c4ccccc4c3C3CCCCCC3C2C(=O)N1c1ccccc1` (centres undefined): the GI50 in assay [1] is 58.2 µM (inactive); in assay [2], > 100 µM (inactive); in assay [4], > 49.9 µM (inactive); in [5], > 58.1 µM (inactive); in assay [6], > 86.9 µM (inactive); in [7], 37.8 µM (inactive). The GI50 in assay [9] is 22.9 µM (inactive); in assay [8] it was 11.7 µM (inactive).
As for `Cn1c2ccccc2c(=O)c2c([N+](=O)[O-])ccc(NCCN)c21`, the GI50 is 10.1 µM (inactive) in assay [2]; 11.5 µM (inactive) in assay [4]; 13 µM (inactive) in [5]; 8.63 µM (inactive) in [6]; 3.86 µM (inactive) in assay [7]; 15.1 µM (inactive) in assay [9]. Also, the GI50 in assay [8] is 14.5 µM (inactive).
Take `CCCNCC(=O)O[C@]1(CC)C(=O)OCc2c1cc1n(c2=O)Cc2cc3ccccc3nc2-1`: the GI50 in [1] is 2.07 µM (inactive); in assay [2], 0.416 µM (active); in [4], 0.0187 µM (active); in assay [5] it was 0.194 µM (active); in assay [6], 1.42 µM (inactive); in assay [7], < 0.01 µM (active). The GI50 in assay [9] was < 0.01 µM (active).
With `CSC(=S)N(C)c1nc(N(C)C)s[s+]1`, the GI50 in assay [1], in assay [2], in [4], in assay [5], in assay [6] and in [7] was > 100 µM (inactive) throughout. In addition, the GI50 in assay [9] and in assay [8] was > 100 µM (inactive) in each case.
Take `CC(=O)OCc1cc(OC(C)=O)cnc1COC(C)=O`: the GI50 in assay [1], in assay [2], in assay [3], in assay [4], in [5] and in assay [6] was > 100 µM (inactive) throughout. Further, the GI50 in assay [7] and in assay [9] was > 100 µM (inactive) throughout.
Regarding `O=C(O)CSc1nnc(/C=C/c2ccccc2)[nH]1`, the GI50 was > 100 µM (inactive) in assay [1]; > 100 µM (inactive) in [2]; > 64.3 µM (inactive) in assay [4]; > 100 µM (inactive) in assay [5]; > 100 µM (inactive) in assay [6]; > 100 µM (inactive) in assay [7]. Also, the GI50 in assay [9] and in assay [8] was > 100 µM (inactive) throughout.
Turning to `CC1(C)C(=O)/C=C\C(=O)C(C)(C)C2=CC=C(O2)C(C)(C)C(=O)/C=C\C(=O)C(C)(C)C2=CC=C1O2`, the GI50 in [2], in [5], in assay [6], in assay [7], in assay [9] and in assay [8] was > 100 µM (inactive) each time.
In the case of `C/N=C(\NC(=S)N(C)C)N(C)C`, the GI50 in assay [1], in [2], in assay [3], in assay [4], in assay [5] and in assay [6] was > 100 µM (inactive) each time. In addition, the GI50 in assay [7], in assay [9] and in assay [8] was > 100 µM (inactive) each time.
On to `COC1=CC(=O)C2C(C1=O)C(c1ccc(OC)c(OC)c1)[C@H]2C` (some centres undefined), for which the GI50 in [1] was 17.1 µM (inactive); in assay [2], 68.9 µM (inactive); in assay [3], 16.4 µM (inactive); in assay [4], 19.5 µM (inactive); in [5], 20.8 µM (inactive); in assay [6], 17.3 µM (inactive). For the same compound, the GI50 in assay [7] was 23.7 µM (inactive); in assay [9] it was 16.2 µM (inactive); in assay [8] it was > 100 µM (inactive).
`CCCCCCCCCCCC[N+]12CC[N+](CCN)(CC1)CC2`: the GI50 in assay [1] is 82.8 µM (inactive); in assay [2], 62.4 µM (inactive); in [3], > 100 µM (inactive); in assay [4], 34.1 µM (inactive); in assay [5] it was > 100 µM (inactive); in assay [6] it was 81.7 µM (inactive). For the same compound, the GI50 in [7] was 14.8 µM (inactive); in assay [9], > 100 µM (inactive); in assay [8], 77.8 µM (inactive).
On to `CN1CCC(c2c(O)cc(O)c3c(=O)cc(-c4ccccc4Cl)oc23)C(O)C1` (centres undefined), for which the GI50 in [1] is 0.0368 µM (active); in assay [2] it was 0.217 µM (active); in assay [6], 0.0769 µM (active); in assay [7] it was 0.0335 µM (active); in [9], 0.0492 µM (active); in assay [8] it was 0.118 µM (active).
With `CCOc1ccc(/C=C/c2cc(OC)c(OC)c(OC)c2)cc1`, the GI50 in [1] was 1.9 µM (inactive); in assay [2], 0.82 µM (active); in [3], 0.879 µM (active); in assay [4], 1.36 µM (inactive); in [5], 3.03 µM (inactive); in assay [6], 0.809 µM (active). Moreover, the GI50 in [7] is 0.548 µM (active); in assay [9], 4.4 µM (inactive); in [8], 0.341 µM (active).
Consider `CC(C)[C@](O)(C(=O)OCC1=CC[N+]2([O-])CC[C@@H](O)[C@@H]12)[C@H](C)O` (some centres undefined) [INDICINE N-OXIDE], for which the GI50 in [1] was > 10000 µM (inactive); in assay [2], > 10000 µM (inactive); in assay [5] it was > 10000 µM (inactive); in [7], 6080 µM (inactive); in [8], > 10000 µM (inactive).

The record behind these values is ChEMBL document CHEMBL1201862, “PubChem BioAssay data set” (2004).
